According to US7169786B2, “Isoxazoline derivatives as anti-depressants” (priority 2001, dated 2007):

Experiments:
hα2C receptor = target: T1, hα2C receptor (Homo sapiens, UniProt P18825); assay: Radioligand binding experiment for hα2C receptor ([3H]-raulwolscine); settings: membranes of CHO cells expressing human α2C receptor; [3H]raulwolscine 1 nM; read-out: hα2C pIC50 (converted)
T1 construct: expressed in transfected cells
T1 sequence (P18825 1-462): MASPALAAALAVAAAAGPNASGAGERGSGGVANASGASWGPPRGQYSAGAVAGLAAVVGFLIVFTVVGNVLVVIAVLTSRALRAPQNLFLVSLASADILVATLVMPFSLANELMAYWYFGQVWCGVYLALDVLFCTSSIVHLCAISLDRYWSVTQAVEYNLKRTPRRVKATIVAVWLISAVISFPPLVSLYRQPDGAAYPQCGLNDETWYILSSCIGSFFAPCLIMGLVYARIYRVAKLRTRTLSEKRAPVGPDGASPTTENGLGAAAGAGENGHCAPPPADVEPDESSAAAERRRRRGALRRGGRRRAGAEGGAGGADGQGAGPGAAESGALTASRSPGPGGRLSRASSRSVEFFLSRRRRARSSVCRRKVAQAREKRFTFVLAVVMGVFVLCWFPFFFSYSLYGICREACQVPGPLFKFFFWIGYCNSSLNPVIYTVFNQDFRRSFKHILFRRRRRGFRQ
In short: (§1)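 Competition binding with [3H]-rauwolscine on membranes from CHO cells stably expressing human α2A, α2B or α2C receptors (sodium butyrate-induced), in 25 mM glycylglycine pH 8.0; filtration and scintillation counting.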

hα2A receptor = target: T2, hα2A receptor (Homo sapiens, UniProt P08913); assay: Radioligand binding experiment for hα2A receptor ([3H]-raulwolscine); settings: membranes of CHO cells expressing human α2A receptor; [3H]raulwolscine 1 nM; read-out: hα2A pIC50 (converted)
T2 construct: expressed in transfected cells
T2 sequence (P08913 1-465): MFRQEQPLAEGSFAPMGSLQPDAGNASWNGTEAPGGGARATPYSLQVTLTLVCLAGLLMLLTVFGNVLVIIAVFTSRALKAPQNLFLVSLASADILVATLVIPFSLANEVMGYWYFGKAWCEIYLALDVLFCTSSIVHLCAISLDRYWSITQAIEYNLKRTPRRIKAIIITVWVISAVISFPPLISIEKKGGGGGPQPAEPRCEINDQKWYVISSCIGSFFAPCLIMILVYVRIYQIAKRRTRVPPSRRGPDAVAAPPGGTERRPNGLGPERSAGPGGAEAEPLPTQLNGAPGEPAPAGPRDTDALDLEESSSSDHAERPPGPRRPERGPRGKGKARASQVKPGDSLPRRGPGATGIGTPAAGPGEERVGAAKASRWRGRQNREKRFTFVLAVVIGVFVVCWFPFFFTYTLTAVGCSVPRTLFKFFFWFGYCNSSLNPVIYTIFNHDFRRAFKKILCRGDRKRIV
In short: as §1

h5-HT transporter = target: T3, h5-HT transporter (Homo sapiens, UniProt P31645); assay: Radioligand binding experiment for 5-HT transporter ([3H]paroxetine, human platelet membranes); settings: human platelet membranes; [3H]paroxetine 0.5 nM; read-out: 5HTT pIC50 (converted)
T3 construct: Human platelet membranes (Oceanix Biosciences Corporation, Hanover, Md., USA) were thawed; tissue Oceanix Biosciences Corporation, Hanover, Md., USA; host or cells: human platelet membranes
In short: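 Competition binding of [^3H]paroxetine to human platelet membranes in Tris-HCl 50 mM, 120 mM NaCl, 5 mM KCl; filter-bound radioactivity counted.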

hα2B receptor = target: T4, hα2B receptor (Homo sapiens, UniProt P18089); assay: Radioligand binding experiment for hα2B receptor ([3H]-raulwolscine); settings: membranes of CHO cells expressing human α2B receptor; [3H]raulwolscine 1 nM; read-out: hα2B pIC50 (converted)
T4 construct: expressed in transfected cells
T4 sequence (P18089 1-450): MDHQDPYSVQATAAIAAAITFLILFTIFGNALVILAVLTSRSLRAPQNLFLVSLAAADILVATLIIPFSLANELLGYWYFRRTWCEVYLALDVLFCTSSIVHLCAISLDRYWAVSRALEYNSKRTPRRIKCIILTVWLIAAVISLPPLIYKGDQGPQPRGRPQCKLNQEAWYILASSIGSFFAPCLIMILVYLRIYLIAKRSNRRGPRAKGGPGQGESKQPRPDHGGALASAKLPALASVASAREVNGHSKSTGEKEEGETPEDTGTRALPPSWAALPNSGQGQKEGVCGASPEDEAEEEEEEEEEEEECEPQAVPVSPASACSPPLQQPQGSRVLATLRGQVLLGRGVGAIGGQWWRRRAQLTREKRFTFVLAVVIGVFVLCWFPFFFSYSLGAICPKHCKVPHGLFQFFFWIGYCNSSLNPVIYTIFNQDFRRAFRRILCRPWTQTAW
In short: as §1

T3 sequence (P31645 whole entry): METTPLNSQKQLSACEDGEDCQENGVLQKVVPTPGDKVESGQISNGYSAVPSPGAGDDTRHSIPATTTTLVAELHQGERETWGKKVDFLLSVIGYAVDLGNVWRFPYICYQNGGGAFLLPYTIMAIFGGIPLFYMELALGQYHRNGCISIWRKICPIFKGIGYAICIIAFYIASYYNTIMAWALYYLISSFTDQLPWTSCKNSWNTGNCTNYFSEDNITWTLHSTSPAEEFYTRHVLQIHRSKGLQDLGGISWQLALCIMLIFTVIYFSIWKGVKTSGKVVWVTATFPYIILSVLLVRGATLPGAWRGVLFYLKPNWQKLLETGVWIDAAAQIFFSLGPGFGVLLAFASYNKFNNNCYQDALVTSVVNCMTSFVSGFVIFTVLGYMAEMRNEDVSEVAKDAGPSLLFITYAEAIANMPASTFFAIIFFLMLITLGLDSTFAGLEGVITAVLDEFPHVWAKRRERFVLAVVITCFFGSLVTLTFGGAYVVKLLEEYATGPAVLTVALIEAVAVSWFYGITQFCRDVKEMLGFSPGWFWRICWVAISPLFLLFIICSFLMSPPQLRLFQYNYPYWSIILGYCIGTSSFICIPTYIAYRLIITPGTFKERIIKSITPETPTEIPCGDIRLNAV

SMILES	IC50 (hα2C receptor) [µM]	IC50 (hα2A receptor) [µM]	IC50 (h5-HT transporter) [µM]	IC50 (hα2B receptor) [µM]
COc1cc2c(cc1OC)C1=NOC(CN3CCN(CC(C)Nc4ccccc4)CC3)C1CO2 (centres unmarked) [Compound 26]	0.245	0.525	0.676	0.102
COc1cc2c(cc1OC)C1=NOC(CN3CCN(Cc4ccccc4)CC3)C1CO2 (centres unmarked) [Compound 31]	1	0.794	0.501	0.631
COc1cc2c(cc1OC)C1=NOC(CN3CCN(CCOc4ccc(F)cc4)CC3)C1CO2 (centres unmarked) [Compound 48]	0.00437	0.0132	0.126	0.00575
CCC(=Cc1ccccc1)CN1CCN(CC2ON=C3c4cc(OC)c(OC)cc4OCC32)CC1 (centres unmarked) [Compound 154]	0.0871	0.0537	0.0891	0.0407
COc1cc2c(cc1OC)C1=NOC(CN3CCN(CCCc4ccccc4)CC3)C1CO2 (centres unmarked) [Compound 32]	0.0115	0.0126	0.017	0.0145
COc1cc2c(cc1OC)C1=NOC(CN3CCN(Cc4ccc5cc(F)ccc5c4)CC3)C1CO2 (centres unmarked) [Compound 76]	0.0251	0.0724	0.00158	0.0891

Next, values leading:

IC50 (hα2C receptor) [µM]	IC50 (hα2A receptor) [µM]	IC50 (h5-HT transporter) [µM]	IC50 (hα2B receptor) [µM]	SMILES
0.00135	0.0038	0.126	0.00741	CSc1cc2c(cc1F)C1=NOC(CN3CCN(CC(C)=Cc4ccccc4)CC3)C1CO2 (centres unmarked) [Compound 244]
0.017	0.00245	0.107	0.00794	c1ccc2cc(CN3CCN(CC4ON=C5c6cc7c(cc6OCC54)OCO7)CC3)ccc2c1 (centres unmarked) [Compound 277]
0.0275	0.00347	0.0148	0.0209	COc1ccc2c(c1)OCC1C2=NOC1CN1CCN(Cc2ccc3ccccc3c2)CC1 (centres unmarked) [Compound 265]
0.00891	0.001	0.00575	0.0055	Oc1ccc2c(c1)OCC1C2=NOC1CN1CCN(Cc2ccc3ccccc3c2)CC1 (centres unmarked) [Compound 268]
0.724	0.759	0.871	0.407	COc1cc2c(cc1OC)C1=NOC(CN3CCN(Cc4ccoc4)CC3)C1CO2 (centres unmarked) [Compound 296]
